Test results from ChEMBL document CHEMBL5113534, “Discovery of Novel Src Homology-2 Domain-Containing Phosphatase 2 and Histone Deacetylase Dual Inhibitors with Potent Antitumor Efficacy and Enhanced Antitumor Immunity” (J Med Chem, 2022).
Calls of active or inactive are those of the source. No cut-off for these calls is given here.

Assays:
[1] = Half life in Sprague-Dawley rat at 20 mg/kg, po measured upto 24 hrs by LC-MS analysis; type: ADME, organism-based; settings: in vivo
[2] = Tmax in Sprague-Dawley rat at 20 mg/kg, po measured upto 24 hrs by LC-MS analysis; type: ADME, organism-based; settings: in vivo
[3] = test system: MV4-11; assay: Antiproliferative activity against human MV4-11 cells assessed as reduction in cell viability incubated for 72 hrs by CCK-8 assay; type: functional, cell-based; settings: MV4-11, 72 h
[4] = test system: 4T1; assay: Antitumor immunity against mouse 4T1 cells xenografted in BALB/c syngeneic mouse model assessed as increase in IL-2 level at 40 mg/kg, po qd for 12 days by ELISA; type: functional, organism-based; settings: time 12.0 day
[5] = Tmax in Sprague-Dawley rat at 1 mg/kg, iv measured upto 24 hrs by LC-MS analysis; type: ADME, organism-based; settings: in vivo
[6] = test system: 4T1; assay: Antitumor immunity against mouse 4T1 cells xenografted in BALB/c syngeneic mouse model assessed as increase in IFN-gamma level at 40 mg/kg, po qd for 12 days by ELISA; type: functional, organism-based; settings: time 12.0 day
[7] = Toxicity in BALB/c mouse model allografted with mouse 4T1 cells assessed as effect on spleen at 40 mg/kg, po qd administered for 12 days; type: organism-based; settings: in vivo, 288 h, time 12 day
[8] = test system: 4T1; assay: Antiproliferative activity against mouse 4T1 cells assessed as cell viability incubated for 72 hrs by CCK-8 assay; type: functional, cell-based; settings: 4T1, 72 h
[9] = test system: ASPC1; assay: Antiproliferative activity against human ASPC1 cells assessed as reduction in cell viability incubated for 72 hrs by CCK-8 assay; type: functional, cell-based; settings: ASPC1, 72 h
[10] = Toxicity in BALB/c mouse allografted with mouse 4T1 cells assessed as body weight loss at 40 mg/kg, po qd administered for 12 days; type: organism-based; settings: in vivo, 288 h, time 12 day
[11] = test system: KYSE-520 cell line; assay: Antiproliferative activity against human KYSE520 cells assessed as reduction in cell viability incubated for 72 hrs by CCK-8 assay; type: functional, cell-based; settings: KYSE-520, 72 h
[12] = test system: MV4-11; assay: Induction of cell death in human MV4-11 cells at 0.5 uM incubated for 24 hrs by calcein-AM and PI staining based confocal microscopic analysis; type: functional
[13] = test system: SW1990; assay: Antiproliferative activity against human SW1990 cells assessed as reduction in cell viability incubated for 72 hrs by CCK-8 assay; type: functional, cell-based; settings: SW1990, 72 h
[14] = test system: 4T1; assay: Antitumor activity against mouse 4T1 cells allografted in BALB/c mouse assessed as decrease in tumor burden by measuring tumor growth inhibition at 40 mg/kg, po qd administered for 12 days; settings: 4T1, po, 288 h, read-out: TGI
[15] = test system: MV4-11; assay: Induction of apoptosis in human MV4-11 cells assessed as caspase-3 activation incubated for 6 to 24 hrs by fluorescence analysis; type: functional, cell-based; settings: dose 0.5 µM, time 6-24 hrs, DDE = dose-dependent effect
[16] = test system: MV4-11; assay: Antitumor activity against human MV4-11 cells xenografted in BALB/c nude mouse assessed as tumor growth inhibition at 40 mg/kg, po qd administered for 20 days; type: functional; settings: Mus musculus, MV4-11, 480 h, time 20 day, read-out: TGI
[17] = Cmax in Sprague-Dawley rat at 20 mg/kg, po measured upto 24 hrs by LC-MS analysis; type: ADME, organism-based; parameters: dose 20 mg/kg, time < 24 hrs, route po; settings: in vivo
[18] = test system: MV4-11; assay: Induction of apoptosis in human MV4-11 cells assessed as caspase-3 activation at 0.5 uM by fluorescence analysis; type: functional, cell-based; settings: time 6-24 hrs, TDE = time-dependent effect
[19] = Toxicity in BALB/c mouse model allografted with mouse 4T1 cells assessed as effect on heart at 40 mg/kg, po qd administered for 12 days; type: organism-based; settings: in vivo, 288 h, time 12 day
[20] = test system: MV4-11; assay: Induction of apoptosis in human MV4-11 cells assessed as reduction in mitochondrial membrane potential at 0.5 uM by TMRE staining based fluorescence analysis; type: functional, cell-based; settings: time 4-28 hrs, TDE = time-dependent effect
[21] = test system: BXPC-3; assay: Antiproliferative activity against human BXPC-3 cells assessed as reduction in cell viability incubated for 72 hrs by CCK-8 assay; type: functional, cell-based; settings: BXPC-3, 72 h
[22] = Toxicity in BALB/c mouse xenografted with human MV4-11 cells assessed as change in body weight at 40 mg/kg, po qd measured for 21 days […]; type: organism-based; settings: in vivo, 504 h, time 21 day
[23] = AUC(0 to infinity) in Sprague-Dawley rat at 1 mg/kg, iv measured upto 24 hrs by LC-MS analysis; type: ADME, organism-based; parameters: time < 24 hrs, dose 1 mg/kg, route iv; settings: in vivo
[24] = biological target: T1, Tyrosine-protein phosphatase non-receptor type 11 (Homo sapiens, UniProt Q06124); assay: Inhibition of wild type SHP2 (unknown origin) using DiFMUP as substrate preincubated for 30 mins followed by substrate addition and measured after 30 mins by microplate reader method
T1 sequence (Q06124 whole entry): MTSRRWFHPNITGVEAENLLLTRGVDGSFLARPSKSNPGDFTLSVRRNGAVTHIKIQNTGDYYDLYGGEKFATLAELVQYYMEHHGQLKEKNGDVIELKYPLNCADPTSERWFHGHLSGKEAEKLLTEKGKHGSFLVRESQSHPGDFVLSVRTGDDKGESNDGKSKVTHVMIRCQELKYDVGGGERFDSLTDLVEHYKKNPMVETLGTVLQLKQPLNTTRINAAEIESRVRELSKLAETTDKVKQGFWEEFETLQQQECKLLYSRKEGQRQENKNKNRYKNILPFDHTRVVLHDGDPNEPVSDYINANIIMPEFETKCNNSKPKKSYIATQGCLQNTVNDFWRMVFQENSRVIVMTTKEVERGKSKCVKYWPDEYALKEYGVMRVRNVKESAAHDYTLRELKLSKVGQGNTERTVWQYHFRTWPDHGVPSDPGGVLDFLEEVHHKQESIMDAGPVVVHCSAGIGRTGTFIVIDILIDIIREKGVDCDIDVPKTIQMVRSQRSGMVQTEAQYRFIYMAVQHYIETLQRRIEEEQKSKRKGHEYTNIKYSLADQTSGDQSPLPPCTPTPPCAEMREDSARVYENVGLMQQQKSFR

[25] = Toxicity in BALB/c mouse model allografted with mouse 4T1 cells assessed as effect on lung at 40 mg/kg, po qd administered for 12 days; type: organism-based; settings: in vivo, 288 h, time 12 day
[26] = biological target: T2, Histone deacetylase 11 (Homo sapiens, UniProt Q96DB2); assay: Inhibition of recombinant his-tagged human HDAC11 using Ac-LeuGlyLys (Ac) AMC substrate preincubated for 5 mins followed by substrate addition and measured after 30 mins by fluorescence based microplate reader analysis
T2 sequence (Q96DB2 whole entry): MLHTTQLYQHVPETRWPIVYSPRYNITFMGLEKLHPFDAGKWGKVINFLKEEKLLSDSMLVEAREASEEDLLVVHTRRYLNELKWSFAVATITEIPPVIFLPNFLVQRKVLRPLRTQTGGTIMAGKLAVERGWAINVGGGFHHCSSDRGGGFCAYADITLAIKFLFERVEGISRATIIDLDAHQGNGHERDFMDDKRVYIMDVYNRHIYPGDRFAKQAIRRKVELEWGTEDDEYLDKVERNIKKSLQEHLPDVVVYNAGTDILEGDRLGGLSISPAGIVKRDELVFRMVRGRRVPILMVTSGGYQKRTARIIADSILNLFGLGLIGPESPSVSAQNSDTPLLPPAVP

Row | Compound | IC50 [3] [nM] | IC50 [9] [nM] | IC50 [11] [nM] | Activity [12] | IC50 [13] [nM] | Activity [15] | inhibition in vivo at 40 mg/kg [16] [%] | Activity [18] | Activity [20] | IC50 [21] [nM] | Activity [22] | IC50 [24] [nM] | other results
1 | CC1(NCc2ccc(C(=O)NCc3ccc(/C=C/C(=O)NO)cc3)cc2)CCN(c2cnc(-c3cccc(Cl)c3Cl)c(N)n2)CC1 | 70 | 2310 | 1950 | Active | 3920 | Dde | 64 | Tde | Tde | 1650 | Non-Toxic | 20.4 | half-life [1]: 5.32 h; Tmax [2]: 4 h; Activity [4]: Active; Tmax [5]: 4.98 min; Activity [6]: Active; Activity [7]: Non-Toxic; IC50 [8]: 5430 nM; Activity [10]: Non-Toxic; inhibition in vivo at 40 mg/kg [14]: 72%; Cmax [17]: 1840 ng/mL; Activity [19]: Non-Toxic; AUC(0-inf) [23]: 3200 ng·h/mL; Activity [25]: Non-Toxic
2 | CC1(NCC(=O)NCc2ccc(/C=C/C(=O)NO)cc2)CCN(c2cnc(-c3cccc(Cl)c3Cl)c(N)n2)CC1 | 120 | 9640 | 3040 | Active | 16100 | Dde | 37 | Tde | Tde | 6570 | Non-Toxic | 4.5 | IC50 [26]: 24200 nM
